# Experimental data taken from patent US20230416329A1, “A PEPTIDE WITH DISULFIDE BONDS AND INHIBITORY ACTIVITY AGAINST SERINE PROTEASES, DERIVED HYBRID PEPTIDES THEREOF, AND USES THEREOF” (INSTITUTE OF MATERIA MEDICA , CHINESE ACADEMY OF MEDICAL …, priority 2020, published 2023).
# Where two headings read alike, the source gives them in different places. Bridge positions count the residues as written; N and C are the ends. Square brackets hold non-standard residues; d marks the D form. Peptide text beside a SMILES is read from it. Nle = CCCC[C@H](N)C(=O)O
# Target: T1, bovine trypsin (Bos taurus, UniProt P00760)
# T1 sequence (P00760 24-246): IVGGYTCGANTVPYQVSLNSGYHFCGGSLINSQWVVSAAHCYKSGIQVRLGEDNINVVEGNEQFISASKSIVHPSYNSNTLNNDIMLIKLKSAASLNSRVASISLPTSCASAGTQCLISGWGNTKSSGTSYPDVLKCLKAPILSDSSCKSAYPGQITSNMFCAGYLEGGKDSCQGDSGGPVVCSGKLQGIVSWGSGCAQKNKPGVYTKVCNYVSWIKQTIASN
# Assay: Trypsin inhibitory activity of peptides (BApNA hydrolysis, OD405; IC50, Ki, residual activity)
# Type: biochemical
# Settings: for IC50: trypsin 50 nM, BApNA 1.22 mM, read-out: IC50; for Ki: Ki=IC50/(1+S/Km), Km 0.33 mM, read-out: Ki
# Experimental: The substrates N-succinyl-Ala-Ala-Pro-Phe-p-nitroaniline (AAPFpNA), Nα—Benzoyl-L-arginine-4-nitroaniline hydrochloride (BApNA) and N-succinyl-[…] (AAApNA) are used in competitive binding reaction to determine the inhibitory activities against α-chymotrypsin, bovine trypsin, and porcine pancreatic elastase, respectively. Experiments for α-chymotrypsin and bovine trypsin inhibition were measured in 20 mM CaCl2, 50 mM Tris-HCl buffer (pH 7.8), and that for porcine elastase inhibition was measured in 50 mM Tris-HCl buffer (pH 8.0). The concentration of the peptide was measured using optical density (OD) at 280 nm. The Michaelis constant (Km) of the enzyme hydrolysis substrate is calculated from the initial rate of substrate hydrolysis at 405 nm. The absorbance value of the substrate was measured at 405 nm after complete hydrolysis. All data were processed using nonlinear regression.
# • (1) Added 200 μL of reaction buffer (20 mM CaCl2 and 50 mM Tris-HCl, pH 7.8) into the 96-well plate, and preheated at 37° C. for 15 min. Then added 5 μL of different concentrations of substrates (p-Nitroanilide, pNA, 0.5% in DMSO), and mixed by centrifugation at 500 rpm for 1 min. […] The experiment was performed in triplicate. The standard curve was obtained by plotting the OD405 nm value with pNA concentration. • (2) Added 190 μL of reaction buffer (20 mM CaCl2 and 50 mM Tris-HCl, pH 7.8) and 10 μL of 1 μM trypsin into the 96-well plate, and preheated at 37° C. for 15 min. Then added 5 μL of different concentrations of substrates (BApNA, 0.5% in DMSO) and mixed by centrifugation at 500 rpm for 1 min. […] The experiment was performed in triplicate. The corresponding curve was obtained by plotting the OD405 nm value with time. Divided the slope of the curve by the slope of the standard curve and the enzyme concentration to obtain the initial velocity V0 (mM/(min*mM protein). Plotted the initial velocity V0 with the concentration of substrate BApNA using Prism software, and the Michaelis constant Km value of trypsin hydrolyzing BApNA was obtained.
# • (1) Added a total 190 μL of reaction buffer (20 mM CaCl2 and 50 mM Tris-HCl, pH 7.8) along with different concentrations of anti-trypsin peptides (BTs) into the pre-cooled 96-well plate, followed by preheating at 37° C., and spined down at 500 rpm for 5 min. Next added 10 μL of 1 μM trypsin, incubated at 37° C., and then spined down at 500 rpm for 10 min. Finally, added 5 μL of 50 mM BApNA, and mixed by centrifugation at 500 rpm for 1 min. The plate was incubated at 37° C. for 260 min, and the absorbance value at 405 nm was measured. The experiment was performed in triplicate. The blank control only contained the reaction buffer and the substrate as the minimum absorption value (Min OD405 nm). The negative control only contained the reaction buffer, the enzyme and the substrate as the maximum absorption value (Max OD405 nm). • (2) In the reaction system of 205 μL, the final concentrations of trypsin and BApNA were 50 nM and 1.22 mM, respectively. • (3) Data statistics
# Residual activity of the enzyme (%)=(1−(Max OD405 nm−Sample OD405 nm)/(Max OD405 nm−Min OD405 nm))*100
# Plotted the residual activity of the enzyme with […] to obtain the half inhibitory concentration (IC50) of BTs scaffold against trypsin. Then, substituted it into the formula Ki=IC50/(1+S/Km) (S, IC50 and Km were substrate concentration, half inhibitory concentration and Michaelis constant, respectively) to obtain the inhibition constant Ki of BTs scaffold against trypsin.
inhibitory activity against trypsin (in words),Residual trypsin activity (peptide 0.00098 μM) [%],Residual trypsin activity (peptide 0.0098 μM) [%],Residual trypsin activity (peptide 0.098 μM) [%],Residual trypsin activity (peptide 0.98 μM) [%],Residual trypsin activity (peptide 9.76 μM) [%],Residual trypsin activity (peptide 97.56 μM) [%],SMILES,other results
–,–,–,–,–,–,–,CC[C@H](C)[C@@H]1NC(=O)[C@H](CO)NC(=O)[C@H](CCCNC(=N)N)NC(=O)[C@H]([C@@H](C)O)NC(=O)[C@H](C)NC(=O)[C@H](CCCNC(=N)N)NC(=O)CNC(=O)[C@@H](N)CSSC[C@@H](C(=O)N[C@@H](Cc2ccccc2)C(=O)O)NC(=O)[C@H]([C@@H](C)CC)NC(=O)[C@@H]2CCCN2C(=O)[C@H](C)NC1=O [BT20] (H-CGRATRSIAPICF-OH; disulfide 1-12 (inferred); N-terminus and C-terminus assumed),IC50: > 50000 nM
reduced their anti-trypsin activities,–,–,–,–,–,–,CC[C@H](C)[C@@H]1NC(=O)[C@@H]2CCCN2C(=O)[C@@H]2CCCN2C(=O)[C@H](C)NC(=O)[C@H](CO)NC(=O)[C@H](CCCNC(=N)N)NC(=O)[C@H]([C@@H](C)O)NC(=O)[C@H](C)NC(=O)[C@H](CCCNC(=N)N)NC(=O)CNC(=O)[C@@H](N)CSSC[C@@H](C(=O)N[C@@H](Cc2ccccc2)C(=O)O)NC1=O [BT21] (H-CGRATRSAPPICF-OH; disulfide 1-12; N-terminus and C-terminus assumed),–
reduced their anti-trypsin activities,–,–,–,–,–,–,CC[C@H](C)[C@@H]1NC(=O)[C@@H]2CCCN2C(=O)[C@@H]2CCCN2C(=O)[C@H]([C@@H](C)CC)NC(=O)[C@H](C)NC(=O)[C@H](CCCNC(=N)N)NC(=O)[C@H]([C@@H](C)O)NC(=O)[C@H](C)NC(=O)[C@H](CCCNC(=N)N)NC(=O)CNC(=O)[C@@H](N)CSSC[C@@H](C(=O)N[C@@H](Cc2ccccc2)C(=O)O)NC1=O [BT22] (H-CGRATRAIPPICF-OH; disulfide 1-12; N-terminus and C-terminus assumed),–
excellent trypsin inhibitory activities,100.6 ± 1.3,99.6 ± 1.4,100.4 ± 1.2,49.7 ± 3.5,1.0 ± 0.1,0.2 ± 0.1,CC[C@H](C)[C@@H]1NC(=O)[C@@H]2CCCN2C(=O)[C@@H]2CCCN2C(=O)[C@H]([C@@H](C)CC)NC(=O)[C@H](CO)NC(=O)[C@H](CCCCN)NC(=O)[C@H]([C@@H](C)O)NC(=O)[C@H](C)NC(=O)[C@H]([C@@H](C)O)NC(=O)CNC(=O)[C@@H](N)CSSC[C@@H](C(=O)N[C@@H](Cc2ccccc2)C(=O)O)NC1=O [BT25] (H-CGTATKSIPPICF-OH; disulfide 1-12; C-terminus assumed),Residual trypsin activity (peptide 0.7317 μM): 82.3 ± 3.9%; Residual trypsin activity (peptide 1.2195 μM): 23.2 ± 2.1%; Residual trypsin activity (peptide 292.68 μM): 0.2 ± 0.2%
–,–,99.5 ± 0.9,100.2 ± 1.4,94.5 ± 0.7,0.4 ± 0.1,0.1 ± 0.0,CC[C@H](C)[C@@H]1NC(=O)[C@@H]2CCCN2C(=O)[C@@H]2CCCN2C(=O)[C@H]([C@@H](C)CC)NC(=O)[C@H](CO)NC(=O)[C@H](CCCCN)NC(=O)[C@H](C)NC(=O)[C@H](C)NC(=O)[C@H](CCCNC(=N)N)NC(=O)CNC(=O)[C@@H](N)CSSC[C@@H](C(=O)N[C@@H](Cc2ccccc2)C(=O)O)NC1=O [BT26] (H-CGRAAKSIPPICF-OH; disulfide 1-12; N-terminus and C-terminus assumed),Residual trypsin activity (peptide 1.95 μM): 77.6 ± 3.1%; Residual trypsin activity (peptide 2.439 μM): 55.1 ± 1.3%; Residual trypsin activity (peptide 3.90 μM): 1.4 ± 0.1%; Residual trypsin activity (peptide 975.61 μM): 0.5 ± 0.0%
reduced their anti-trypsin activities,98.9 ± 1.5,103.5 ± 2.4,92.0 ± 1.9,1.3 ± 0.3,0.1 ± 0.0,0.1 ± 0.0,CC[C@H](C)[C@@H]1NC(=O)[C@@H]2CCCN2C(=O)[C@@H]2CCCN2C(=O)[C@H]([C@@H](C)CC)NC(=O)[C@H](C)NC(=O)[C@H](CCCCN)NC(=O)[C@H]([C@@H](C)O)NC(=O)[C@H](C)NC(=O)[C@H](CCCNC(=N)N)NC(=O)CNC(=O)[C@@H](N)CSSC[C@@H](C(=O)N[C@@H](Cc2ccccc2)C(=O)O)NC1=O [BT27] (H-CGRATKAIPPICF-OH; disulfide 1-12; C-terminus assumed),Ki: 60 nM; inhibitory activity against trypsin (in words) (listed as SEQ ID NO: 27): excellent trypsin inhibitory activities; Residual trypsin activity (peptide 0.000098 μM): 101.0 ± 0.7%; Residual trypsin activity (peptide 0.195 μM): 74.1 ± 1.3%; Residual trypsin activity (peptide 0.293 μM): 49.2 ± 3.0%; Residual trypsin activity (peptide 0.390 μM): 19.9 ± 6.3%
reduced their anti-trypsin activities,102.3 ± 0.7,101.8 ± 0.1,92.2 ± 5.5,0.7 ± 0.0,0.1 ± 0.0,0.0 ± 0.0,CCCC[C@@H]1NC(=O)[C@H](CO)NC(=O)[C@H](CCCCN)NC(=O)[C@H]([C@@H](C)O)NC(=O)[C@H](C)NC(=O)[C@H](CCCNC(=N)N)NC(=O)CNC(=O)[C@@H](N)CSSC[C@@H](C(=O)N[C@@H](Cc2ccccc2)C(=O)O)NC(=O)[C@H]([C@@H](C)CC)NC(=O)[C@@H]2CCCN2C(=O)[C@@H]2CCCN2C1=O [BT28] (H-CGRATKS[Nle]PPICF-OH; disulfide 1-12; C-terminus assumed),Ki: 60 nM; inhibitory activity against trypsin (in words) (listed as SEQ ID NO: 28): excellent trypsin inhibitory activities; Residual trypsin activity (peptide 0.195 μM): 77.6 ± 8.3%; Residual trypsin activity (peptide 0.293 μM): 52.7 ± 5.9%; Residual trypsin activity (peptide 0.390 μM): 16.7 ± 3.7%; IC50: 290 nM

SMILES,inhibitory activity against trypsin (in words),Residual trypsin activity (peptide 0.00098 μM) [%],Residual trypsin activity (peptide 0.0098 μM) [%],Residual trypsin activity (peptide 0.098 μM) [%],Residual trypsin activity (peptide 0.98 μM) [%],Residual trypsin activity (peptide 9.76 μM) [%],Residual trypsin activity (peptide 97.56 μM) [%],other results
CC[C@H](C)[C@@H]1NC(=O)[C@@H]2CCCN2C(=O)[C@@H]2CCCN2C(=O)[C@H]([C@@H](C)CC)NC(=O)[C@H](CO)NC(=O)[C@H](CCCNC(=N)N)NC(=O)[C@H]([C@@H](C)O)NC(=O)[C@H](C)NC(=O)[C@H](CCCNC(=N)N)NC(=O)CNC(=O)[C@@H](N)CSSC[C@@H](C(=O)N[C@@H](C)C(=O)O)NC1=O [BT19] (H-CGRATRSIPPICA-OH; disulfide 1-12; N-terminus and C-terminus assumed),significant impact on their anti-trypsisn activities,–,–,–,–,–,–,–
CC[C@H](C)[C@@H]1NC(=O)[C@@H]2CCCN2C(=O)[C@@H]2CCCN2C(=O)[C@H]([C@@H](C)CC)NC(=O)[C@H](CO)NC(=O)[C@H](CCCCN)NC(=O)[C@H]([C@@H](C)O)NC(=O)[C@H](C)NC(=O)[C@H]([C@@H](C)O)NC(=O)CNC(=O)[C@@H](N)CSSC[C@@H](C(=O)N[C@@H](CC(N)=O)C(=O)O)NC1=O [BT24] (H-CGTATKSIPPICN-OH; disulfide 1-12; N-terminus and C-terminus assumed),significant impact on their anti-trypsisn activities,–,–,–,–,–,–,–
